Source: publication PMC3183106 (Pharmacological research : the official journal of the …, 2011)
Read-outs that look alike come from different tables or passages of the source.

Experiments:
[1] = cited from earlier work
[2] = mean ± SEM
[3] = mean ± SEM; remark: listed apart in the source
[4] = human, in vivo
[5] = cited from earlier work; remark: listed apart in the source

CC(C)=CCC/C(C)=C/C=C/C(C)=C/C=C/C(C)=C/C=C/C=C(C)/C=C/C=C(C)/C=C/C=C(\C)CCC=C(C)C [Lycopene]
Increase in serum concentrations ([1]; heat processed tomato juice): 2–3 fold
Change in serum concentrations ([1]; unprocessed tomato juice): no change

CSCCCCNC(=S)SC[C@H](N)C(=O)NCC(=O)O [ERN-CG, ERN-cysteinylglycine]
Percent of metabolite relative to total for respective ITC in the plasma ([2]; 12 hrs after broccoli sprouts, GSTP1 A/A (n=7)): 69.4 ± 1.38%
Percent of metabolite relative to total for respective ITC in the plasma ([2]; 12 hrs after broccoli sprouts, GSTP1 A/G (n=5)): 67.6 ± 1.19%
Percent of metabolite relative to total for respective ITC in the plasma ([2]; 12 hrs after broccoli supplement, GSTP1 A/A (n=7)): 72.9 ± 1.78%
Percent of metabolite relative to total for respective ITC in the plasma ([2]; 12 hrs after broccoli supplement, GSTP1 A/G (n=5)): 75.1 ± 1.44%
Percent of metabolite relative to total metabolites for respective ITC in urine ([3]; first 12 hrs after broccoli sprouts, GSTP1 A/A (n=7)): 0.11 ± 0.01%
Percent of metabolite relative to total metabolites for respective ITC in urine ([3]; first 12 hrs after broccoli sprouts, GSTP1 A/G (n=5)): 0.12 ± 0.04%
Percent of metabolite relative to total metabolites for respective ITC in urine ([3]; first 12 hrs after broccoli supplement, GSTP1 A/A (n=7)): 0.89 ± 0.31%
Percent of metabolite relative to total metabolites for respective ITC in urine ([3]; first 12 hrs after broccoli supplement, GSTP1 A/G (n=5)): 2.00 ± 0.77%

C[S+]([O-])CCCCN=C=S (stereo not shown) [SFN, sulforaphane]
Time by which total metabolites almost completely cleared from the plasma [4]: ≤ 24 h
SFN recovered after consumption ([5]; broccoli powder): 19%
SFN recovered after consumption ([5]; broccoli sprouts): 74%
